# According to patent US12281080B2, “Quinoline-based compounds and methods of inhibiting CDK8/19” (University of South Carolina, priority 2018, dated 2025):
# Legend:
# NEK11 = NEK11 (Homo sapiens (Human), UniProt Q8NG66); experiment: KINOMEscan scanMAX; type: binding; conditions: 2000 nM; read-out: Percent Control
# RET(V804L) = RET(V804L) (Homo sapiens (Human), UniProt P07949, V804L); experiment: KINOMEscan scanMAX; type: binding; conditions: 2000 nM; read-out: Percent Control
# [1] = test system: 4T1 murine triple-negative breast cancer; experiment: 4T1 breast cancer metastasis survival model; type: in vivo; conditions: 40 mg/kg, oral, b.i.d., female Balb/c mice after primary tumor removal
# Method: 4T1 is a murine triple-negative breast cancer (TNBC) cell line, which is highly metastatic to the lungs. 4T1 cells were injected orthotopically in the mammary fat pad of female Balb/c mice and the primary tumors were surgically removed when tumor sizes reach 500-600 mm^3. Mice were then separated into two groups (FIG. 12A, n=8), which were then treated with vehicle (5% dextrose) or Senexin C (40 mg/kg, oral, b.i.d.).
# EGFR(G719C) = EGFR(G719C) (Homo sapiens (Human), UniProt P00533, G719C); experiment: KINOMEscan scanMAX; type: binding; conditions: 2000 nM; read-out: Percent Control
# KIT(V559D, V654A) = KIT(V559D, V654A) (Homo sapiens (Human), UniProt P10721, V559D/V654A); experiment: KINOMEscan scanMAX; type: binding; conditions: 2000 nM; read-out: Percent Control
# [2] = biological target: JAK3(JH1domain-catalytic) (Homo sapiens (Human), UniProt P52333); experiment: KINOMEscan scanMAX; type: binding; conditions: 2000 nM; read-out: Percent Control
# AXL = AXL (Homo sapiens (Human), UniProt P30530); experiment: KINOMEscan scanMAX; type: binding; conditions: 2000 nM; read-out: Percent Control
# TAK1 (MAP3K7) = TAK1 (MAP3K7) (Homo sapiens (Human), UniProt O43318); experiment: KINOMEscan scanMAX; type: binding; conditions: 2000 nM; read-out: Percent Control
# Chain of TAK1 (MAP3K7) (O43318 whole entry): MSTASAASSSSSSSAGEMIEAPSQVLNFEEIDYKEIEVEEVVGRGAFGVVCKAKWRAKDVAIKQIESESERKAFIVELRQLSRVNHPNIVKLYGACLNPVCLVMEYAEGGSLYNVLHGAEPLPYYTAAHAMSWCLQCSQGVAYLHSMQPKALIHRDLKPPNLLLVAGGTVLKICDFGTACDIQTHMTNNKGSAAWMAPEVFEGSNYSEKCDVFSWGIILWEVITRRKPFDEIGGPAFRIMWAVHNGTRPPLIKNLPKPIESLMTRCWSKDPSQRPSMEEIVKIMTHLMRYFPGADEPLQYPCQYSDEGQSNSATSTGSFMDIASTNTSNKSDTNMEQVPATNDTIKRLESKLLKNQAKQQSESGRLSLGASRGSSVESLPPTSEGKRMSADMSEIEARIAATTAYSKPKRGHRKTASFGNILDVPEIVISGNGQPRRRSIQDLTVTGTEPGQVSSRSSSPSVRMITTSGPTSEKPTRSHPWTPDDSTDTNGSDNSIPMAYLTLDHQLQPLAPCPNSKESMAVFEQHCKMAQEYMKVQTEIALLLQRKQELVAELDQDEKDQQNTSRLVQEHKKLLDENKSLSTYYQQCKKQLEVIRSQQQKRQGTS
# [3] = biological target: ABL1(T315I)-phosphorylated (Homo sapiens (Human), UniProt P00519, T315I); experiment: KINOMEscan scanMAX; type: binding; conditions: 2000 nM; read-out: Percent Control
# PIK3CA = PIK3CA (Homo sapiens (Human), UniProt P42336); experiment: KINOMEscan scanMAX; type: binding; conditions: 2000 nM; read-out: Percent Control
# MST2 (STK3) = MST2 (STK3) (Homo sapiens (Human), UniProt Q13188); experiment: KINOMEscan scanMAX; type: binding; conditions: 2000 nM; read-out: Percent Control
# Chain of MST2 (STK3) (Q13188 whole entry): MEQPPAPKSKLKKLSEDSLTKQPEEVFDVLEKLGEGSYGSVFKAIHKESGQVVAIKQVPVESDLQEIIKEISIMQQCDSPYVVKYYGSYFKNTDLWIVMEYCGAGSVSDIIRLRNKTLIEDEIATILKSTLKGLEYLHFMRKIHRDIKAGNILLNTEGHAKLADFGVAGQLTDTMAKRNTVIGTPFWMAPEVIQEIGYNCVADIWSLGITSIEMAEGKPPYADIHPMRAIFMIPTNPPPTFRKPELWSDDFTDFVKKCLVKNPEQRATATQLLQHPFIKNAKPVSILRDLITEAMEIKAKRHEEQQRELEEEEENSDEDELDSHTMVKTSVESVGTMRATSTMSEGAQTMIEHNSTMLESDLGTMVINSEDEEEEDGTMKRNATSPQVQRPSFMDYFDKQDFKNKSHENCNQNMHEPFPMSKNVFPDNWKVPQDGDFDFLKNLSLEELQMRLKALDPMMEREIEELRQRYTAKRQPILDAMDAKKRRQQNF
# NIK (MAP3K14) = NIK (MAP3K14) (Homo sapiens (Human), UniProt Q99558); experiment: KINOMEscan scanMAX; type: binding; conditions: 2000 nM; read-out: Percent Control
# DMPK2 (CDC42BPG) = DMPK2 (CDC42BPG) (Homo sapiens (Human), UniProt Q6DT37); experiment: KINOMEscan scanMAX; type: binding; conditions: 2000 nM; read-out: Percent Control
# TAOK3 = TAOK3 (Homo sapiens (Human), UniProt Q9H2K8); experiment: KINOMEscan scanMAX; type: binding; conditions: 2000 nM; read-out: Percent Control
# Chain of TAOK3 (Q9H2K8 whole entry): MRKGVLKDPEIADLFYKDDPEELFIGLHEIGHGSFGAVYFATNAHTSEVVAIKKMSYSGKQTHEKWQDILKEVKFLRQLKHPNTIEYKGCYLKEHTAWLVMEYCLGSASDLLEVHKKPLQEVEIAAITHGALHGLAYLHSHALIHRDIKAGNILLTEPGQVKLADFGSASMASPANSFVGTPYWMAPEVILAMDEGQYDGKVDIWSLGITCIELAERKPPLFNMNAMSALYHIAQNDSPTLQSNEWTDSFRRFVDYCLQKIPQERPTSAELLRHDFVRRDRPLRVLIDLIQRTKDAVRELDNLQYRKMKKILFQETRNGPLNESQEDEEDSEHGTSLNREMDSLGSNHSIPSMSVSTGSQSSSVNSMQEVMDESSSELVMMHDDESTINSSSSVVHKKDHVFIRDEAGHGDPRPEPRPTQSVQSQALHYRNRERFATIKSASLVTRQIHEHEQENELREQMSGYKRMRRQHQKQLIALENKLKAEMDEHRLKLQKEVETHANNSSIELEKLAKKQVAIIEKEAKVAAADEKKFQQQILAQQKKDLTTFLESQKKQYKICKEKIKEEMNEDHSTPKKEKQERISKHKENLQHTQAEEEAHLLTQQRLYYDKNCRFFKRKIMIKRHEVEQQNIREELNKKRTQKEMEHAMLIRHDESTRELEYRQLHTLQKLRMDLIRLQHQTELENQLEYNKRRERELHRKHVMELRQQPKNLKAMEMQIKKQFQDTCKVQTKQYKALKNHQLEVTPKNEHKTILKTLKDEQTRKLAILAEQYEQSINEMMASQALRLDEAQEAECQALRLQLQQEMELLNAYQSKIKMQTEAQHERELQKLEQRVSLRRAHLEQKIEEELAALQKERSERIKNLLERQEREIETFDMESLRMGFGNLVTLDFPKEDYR
# PFTAIRE2 (CDK15) = PFTAIRE2 (CDK15) (Homo sapiens (Human), UniProt Q96Q40); experiment: KINOMEscan scanMAX; type: binding; conditions: 2000 nM; read-out: Percent Control
# Chain of PFTAIRE2 (CDK15) (Q96Q40 whole entry): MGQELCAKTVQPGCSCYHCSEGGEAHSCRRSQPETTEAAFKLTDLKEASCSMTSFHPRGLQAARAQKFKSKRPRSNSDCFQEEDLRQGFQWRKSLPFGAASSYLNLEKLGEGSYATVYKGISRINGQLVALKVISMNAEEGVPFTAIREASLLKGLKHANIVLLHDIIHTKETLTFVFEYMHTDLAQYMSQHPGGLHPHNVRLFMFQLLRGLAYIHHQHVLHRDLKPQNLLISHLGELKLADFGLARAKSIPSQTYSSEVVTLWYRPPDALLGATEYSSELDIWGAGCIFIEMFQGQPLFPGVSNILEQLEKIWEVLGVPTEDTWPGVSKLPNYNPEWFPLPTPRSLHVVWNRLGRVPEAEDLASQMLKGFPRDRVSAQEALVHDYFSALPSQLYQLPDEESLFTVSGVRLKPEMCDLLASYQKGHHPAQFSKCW
# AURKC = AURKC (Homo sapiens (Human), UniProt Q9UQB9); experiment: KINOMEscan scanMAX; type: binding; conditions: 2000 nM; read-out: Percent Control
# Chain of AURKC (Q9UQB9 whole entry): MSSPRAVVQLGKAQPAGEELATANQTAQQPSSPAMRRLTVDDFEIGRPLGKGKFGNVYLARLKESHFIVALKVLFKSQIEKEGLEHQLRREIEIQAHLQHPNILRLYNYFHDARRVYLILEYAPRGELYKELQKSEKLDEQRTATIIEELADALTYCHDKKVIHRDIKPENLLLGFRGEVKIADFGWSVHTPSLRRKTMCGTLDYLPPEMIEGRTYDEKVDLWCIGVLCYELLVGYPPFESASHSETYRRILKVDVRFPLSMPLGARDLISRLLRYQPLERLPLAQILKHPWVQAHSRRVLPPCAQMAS
# BLK = BLK (Homo sapiens (Human), UniProt P51451); experiment: KINOMEscan scanMAX; type: binding; conditions: 2000 nM; read-out: Percent Control
# Chain of BLK (P51451 whole entry): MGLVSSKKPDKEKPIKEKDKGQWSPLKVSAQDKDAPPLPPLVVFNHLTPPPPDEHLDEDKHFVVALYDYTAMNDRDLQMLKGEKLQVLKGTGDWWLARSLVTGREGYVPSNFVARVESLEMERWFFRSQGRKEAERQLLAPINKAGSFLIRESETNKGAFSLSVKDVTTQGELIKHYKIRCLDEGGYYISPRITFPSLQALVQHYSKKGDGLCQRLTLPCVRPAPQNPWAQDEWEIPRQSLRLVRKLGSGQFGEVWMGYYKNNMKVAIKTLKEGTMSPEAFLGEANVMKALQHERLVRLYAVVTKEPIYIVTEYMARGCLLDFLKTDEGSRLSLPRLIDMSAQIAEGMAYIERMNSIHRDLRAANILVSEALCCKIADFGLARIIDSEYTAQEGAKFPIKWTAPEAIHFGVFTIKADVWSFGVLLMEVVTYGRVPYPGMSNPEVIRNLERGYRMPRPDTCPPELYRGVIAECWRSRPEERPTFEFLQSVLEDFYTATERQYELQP
# [4] = biological target: RSK1(Kin.Dom.2-C-terminal) (RPS6KA1) (Homo sapiens (Human), UniProt Q15418); experiment: KINOMEscan scanMAX; type: binding; conditions: 2000 nM; read-out: Percent Control
# PIK3CA(E542K) = PIK3CA(E542K) (Homo sapiens (Human), UniProt P42336, E542K); experiment: KINOMEscan scanMAX; type: binding; conditions: 2000 nM; read-out: Percent Control
# LATS1 = LATS1 (Homo sapiens (Human), UniProt O95835); experiment: KINOMEscan scanMAX; type: binding; conditions: 2000 nM; read-out: Percent Control
# Chain of LATS1 (O95835 whole entry): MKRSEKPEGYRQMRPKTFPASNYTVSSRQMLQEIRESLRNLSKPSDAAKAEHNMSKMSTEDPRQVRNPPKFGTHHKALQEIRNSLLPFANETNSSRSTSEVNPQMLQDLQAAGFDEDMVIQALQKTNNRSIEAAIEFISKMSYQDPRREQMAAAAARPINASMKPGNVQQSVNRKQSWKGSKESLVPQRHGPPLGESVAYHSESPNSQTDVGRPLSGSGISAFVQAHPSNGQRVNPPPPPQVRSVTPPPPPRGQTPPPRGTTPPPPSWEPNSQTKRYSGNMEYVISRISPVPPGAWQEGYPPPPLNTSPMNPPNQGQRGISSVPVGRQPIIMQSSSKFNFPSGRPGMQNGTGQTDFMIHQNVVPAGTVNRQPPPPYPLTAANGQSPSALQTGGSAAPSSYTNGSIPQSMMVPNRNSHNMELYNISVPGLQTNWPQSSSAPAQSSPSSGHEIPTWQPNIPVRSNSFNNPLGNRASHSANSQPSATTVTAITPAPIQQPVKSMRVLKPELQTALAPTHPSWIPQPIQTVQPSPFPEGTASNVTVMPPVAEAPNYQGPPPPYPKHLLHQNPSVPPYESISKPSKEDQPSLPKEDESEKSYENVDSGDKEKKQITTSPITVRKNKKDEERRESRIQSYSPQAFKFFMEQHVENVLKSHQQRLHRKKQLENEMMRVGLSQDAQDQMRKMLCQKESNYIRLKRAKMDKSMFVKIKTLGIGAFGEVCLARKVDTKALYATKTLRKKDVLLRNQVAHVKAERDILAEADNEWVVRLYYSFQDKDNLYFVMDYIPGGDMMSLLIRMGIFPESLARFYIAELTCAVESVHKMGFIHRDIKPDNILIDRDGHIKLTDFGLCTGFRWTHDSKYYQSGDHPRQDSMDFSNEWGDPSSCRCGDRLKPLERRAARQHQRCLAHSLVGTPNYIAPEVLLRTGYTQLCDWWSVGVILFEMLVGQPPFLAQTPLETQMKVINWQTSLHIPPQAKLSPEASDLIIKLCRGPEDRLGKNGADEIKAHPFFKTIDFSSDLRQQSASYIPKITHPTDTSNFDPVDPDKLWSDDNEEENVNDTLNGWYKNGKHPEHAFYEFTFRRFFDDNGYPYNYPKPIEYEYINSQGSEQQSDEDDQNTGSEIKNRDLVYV
# [5] = biological target: RSK1(Kin.Dom.1-N-terminal) (RPS6KA1) (Homo sapiens (Human), UniProt Q15418); experiment: KINOMEscan scanMAX; type: binding; conditions: 2000 nM; read-out: Percent Control
# TIE2 (TEK) = TIE2 (TEK) (Homo sapiens (Human), UniProt Q02763); experiment: KINOMEscan scanMAX; type: binding; conditions: 2000 nM; read-out: Percent Control
# ERK2 (MAPK1) = ERK2 (MAPK1) (Homo sapiens (Human), UniProt P28482); experiment: KINOMEscan scanMAX; type: binding; conditions: 2000 nM; read-out: Percent Control
# ERBB2 = ERBB2 (Homo sapiens (Human), UniProt P04626); experiment: KINOMEscan scanMAX; type: binding; conditions: 2000 nM; read-out: Percent Control
# [6] = biological target: ABL1(F317I)-phosphorylated (Homo sapiens (Human), UniProt P00519, F317I); experiment: KINOMEscan scanMAX; type: binding; conditions: 2000 nM; read-out: Percent Control
# YANK2 (STK32B) = YANK2 (STK32B) (Homo sapiens (Human), UniProt Q9NY57); experiment: KINOMEscan scanMAX; type: binding; conditions: 2000 nM; read-out: Percent Control
# SGK2 = SGK2 (Homo sapiens (Human), UniProt Q9HBY8); experiment: KINOMEscan scanMAX; type: binding; conditions: 2000 nM; read-out: Percent Control
# GRK2 (ADRBK1) = GRK2 (ADRBK1) (Homo sapiens (Human), UniProt P25098); experiment: KINOMEscan scanMAX; type: binding; conditions: 2000 nM; read-out: Percent Control
# MYO3B = MYO3B (Homo sapiens (Human), UniProt Q8WXR4); experiment: KINOMEscan scanMAX; type: binding; conditions: 2000 nM; read-out: Percent Control
# PLK3 = PLK3 (Homo sapiens (Human), UniProt Q9H4B4); experiment: KINOMEscan scanMAX; type: binding; conditions: 2000 nM; read-out: Percent Control
# FGFR1 = FGFR1 (Homo sapiens (Human), UniProt P11362); experiment: KINOMEscan scanMAX; type: binding; conditions: 2000 nM; read-out: Percent Control
# EPHB3 = EPHB3 (Homo sapiens (Human), UniProt P54753); experiment: KINOMEscan scanMAX; type: binding; conditions: 2000 nM; read-out: Percent Control
# TNNI3K = TNNI3K (Homo sapiens (Human), UniProt Q59H18); experiment: KINOMEscan scanMAX; type: binding; conditions: 2000 nM; read-out: Percent Control
# WEE1 = WEE1 (Homo sapiens (Human), UniProt P30291); experiment: KINOMEscan scanMAX; type: binding; conditions: 2000 nM; read-out: Percent Control
# SNARK (NUAK2) = SNARK (NUAK2) (Homo sapiens (Human), UniProt Q9H093); experiment: KINOMEscan scanMAX; type: binding; conditions: 2000 nM; read-out: Percent Control
# Chain of SNARK (NUAK2) (Q9H093 whole entry): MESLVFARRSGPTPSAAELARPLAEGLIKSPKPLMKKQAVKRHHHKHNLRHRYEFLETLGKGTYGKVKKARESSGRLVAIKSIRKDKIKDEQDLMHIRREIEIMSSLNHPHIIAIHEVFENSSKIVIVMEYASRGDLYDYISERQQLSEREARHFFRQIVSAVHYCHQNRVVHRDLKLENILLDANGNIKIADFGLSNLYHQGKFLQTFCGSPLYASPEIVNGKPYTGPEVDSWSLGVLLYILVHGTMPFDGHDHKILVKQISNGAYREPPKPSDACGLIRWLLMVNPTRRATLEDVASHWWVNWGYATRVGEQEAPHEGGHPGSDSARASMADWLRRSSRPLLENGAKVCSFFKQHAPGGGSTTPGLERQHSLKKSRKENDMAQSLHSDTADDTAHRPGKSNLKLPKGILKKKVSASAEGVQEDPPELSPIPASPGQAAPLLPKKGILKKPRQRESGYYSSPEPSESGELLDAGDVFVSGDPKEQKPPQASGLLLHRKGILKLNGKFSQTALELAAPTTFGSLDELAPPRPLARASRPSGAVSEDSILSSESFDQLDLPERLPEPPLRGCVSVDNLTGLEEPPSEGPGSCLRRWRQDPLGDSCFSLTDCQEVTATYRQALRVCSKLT
# FLT3-autoinhibited = FLT3-autoinhibited (Homo sapiens (Human), UniProt P36888); experiment: KINOMEscan scanMAX; type: binding; conditions: 2000 nM; read-out: Percent Control
smiles,measurement,setting,value
"CN1CCN(C(=O)c2ccc3cc(CCNc4ccnc5ccc(C#N)cc45)ccc3c2)CC1 [compound 6148, 4-((2-(6-(4-methylpiperazine-1-carbonyl)naphthalen-2-yl)ethyl)amino)quinoline-6-carbonitrile]",remaining binding at 2 µM,NEK11,60%
same,remaining binding at 2 µM,RET(V804L),88%
same,Mouse survival of the metastatic disease,[1],significantly increased
same,remaining binding at 2 µM,EGFR(G719C),93%
same,remaining binding at 2 µM,"KIT(V559D, V654A)",89%
same,remaining binding at 2 µM,[2],65%
same,remaining binding at 2 µM,AXL,95%
same,remaining binding at 2 µM,TAK1 (MAP3K7),63%
same,remaining binding at 2 µM,[3],76%
same,remaining binding at 2 µM,PIK3CA,90%
same,remaining binding at 2 µM,MST2 (STK3),100%
same,remaining binding at 2 µM,NIK (MAP3K14),88%
same,remaining binding at 2 µM,DMPK2 (CDC42BPG),83%
same,remaining binding at 2 µM,TAOK3,79%
same,remaining binding at 2 µM,PFTAIRE2 (CDK15),100%
same,remaining binding at 2 µM,AURKC,100%
same,remaining binding at 2 µM,BLK,100%
same,remaining binding at 2 µM,[4],97%
same,remaining binding at 2 µM,PIK3CA(E542K),55%
same,remaining binding at 2 µM,LATS1,76%
same,remaining binding at 2 µM,[5],91%
same,remaining binding at 2 µM,TIE2 (TEK),89%
same,remaining binding at 2 µM,ERK2 (MAPK1),93%
same,remaining binding at 2 µM,ERBB2,73%
same,remaining binding at 2 µM,[6],89%
same,remaining binding at 2 µM,YANK2 (STK32B),89%
same,remaining binding at 2 µM,SGK2,61%
same,remaining binding at 2 µM,GRK2 (ADRBK1),63%
same,remaining binding at 2 µM,MYO3B,31%
same,remaining binding at 2 µM,PLK3,80%
same,remaining binding at 2 µM,FGFR1,85%
same,remaining binding at 2 µM,EPHB3,81%
same,remaining binding at 2 µM,TNNI3K,100%
same,remaining binding at 2 µM,WEE1,88%
same,remaining binding at 2 µM,SNARK (NUAK2),75%
same,remaining binding at 2 µM,FLT3-autoinhibited,88%
